Measurements taken from BindingDB's records for doi:10.1002/cmdc.202100576 (Experimental Drug Development Centre, 2021).
“And” between values parts separate entries of the source, which are not always exact repeats. Equal entries are not always repeated.

Target: Replicase polyprotein 1ab (Severe acute respiratory syndrome coronavirus, UniProt P0C6X7)
Experiment: Various Assay

| SMILES | IC50 | Ki |
| --- | --- | --- |
| CC(C)C(=O)Nc1ccc(N(C(=O)Cn2nnc3ccccc32)[C@H](C(=O)NCc2ccccc2)c2ccc(O)cc2)cc1 [cmdc.202100576, 19c] | 1.1 µM |  |
| O=C(Nc1ccc(NC(=O)c2cc(B(O)O)cc([N+](=O)[O-])c2)cc1)c1cc(B(O)O)cc([N+](=O)[O-])c1 [acs.jmedchem.1c00409_ST.31] |  | 0.022 µM |
| O=C(Oc1ccc(S(=O)(=O)c2ccc(OC(=O)C(Cl)=C(Cl)Cl)cc2Cl)cc1)C(Cl)=C(Cl)Cl [cmdc.202100576, 7b] | 0.9 µM |  |
| O=C[C@H](CC1CCNC1=O)NC(=O)[C@H](Cc1ccccc1)NC(=O)c1cc2ccccc2[nH]1 (some centres undefined) [cmdc.202100576, 18b] | 0.03 µM |  |
| CN1C(=O)C(=O)c2cc(C(=O)N3CCOCC3)ccc21 [cmdc.202100576, 13d] | 36.4 µM |  |
| O=C(O)c1cc(O)cc(B(O)O)c1 [cmdc.202100576, 4d] |  | 3.5 µM |
| O=C(Sc1nnc(C(F)(F)F)[nH]1)C1CCC(C#Cc2ccccc2)O1 (centres undefined) [cmdc.202100576, 7c] | 3 µM |  |
| CC(C)C[C@@H](NC(=O)OCc1ccccc1)C(=O)N[C@@H](C=O)CC1CCNC1=O (some centres undefined) [cmdc.202100576, 14b] | 3.5 µM |  |
| COC(=O)/C=C/[C@H](C[C@@H]1CCNC1=O)NC(=O)[C@H](CC(C)C)NC(=O)[C@@H](NC(=O)OCc1ccccc1)C(C)NC(=O)C(C)(C)C (some centres undefined) [cmdc.202100576, 5f] |  | 0.038 µM |
| Cc1cc(C(=O)N[C@@H](C)C(=O)N[C@H](C(=O)N[C@@H](CC(C)C)C(=O)N[C@H](C=CC(=O)OCc2ccccc2)C[C@@H]2CCNC2=O)C(C)C)no1 [the N3 Compound] | 9 µM |  |
| CC(C)C(=O)Nc1ccc(N(C(=O)Cn2nnc3ccccc32)[C@H](C(=O)NCc2ccccc2)c2ccc(Cl)c(F)c2)cc1 [cmdc.202100576, 19b] | 0.8 µM |  |
| CC(C)C[C@@H](NC(=O)OCc1ccccc1)C(=O)N[C@H](CC1CCNC1=O)C(=O)C(=O)NC(C)C (some centres undefined) [cmdc.202100576, 14d] | 4.7 µM |  |
| O=[N+]([O-])c1ccccc1SSc1nccs1 [cmdc.202100576, 17d] | 2 µM |  |
| COc1cccc2[nH]c(C(=O)N(C)[C@@H](CC(C)C)C(=O)N[C@@H](C[C@@H]3CCNC3=O)C(=O)CO)cc12 [WO2005113580-Ex-29] | 0.083 µM |  |
| Nc1cc(B(O)O)cc(C(=O)OCc2cccc(B(O)O)c2)c1 [cmdc.202100576, 4c] |  | 3.5 µM |
| CC(C)C[C@H](NC(=O)[C@H](CN(C)C)NC(=O)OCc1ccccc1)C(=O)N[C@@H](C[C@@H]1CCNC1=O)C(=O)C(=O)NC(C)(C)C [cmdc.202100576, 22d] | 0.007 µM |  |
| O=C[C@H](CC1CCNC1=O)NC(=O)[C@H](Cc1ccccc1)NC(=O)c1ccc2c(c1)OCO2 (some centres undefined) [cmdc.202100576, 18e] | 0.1 µM |  |
| O=C[C@H](CC1CCNC1=O)NC(=O)[C@H](Cc1ccccc1)NC(=O)c1cc2cc(F)ccc2[nH]1 (some centres undefined) | 0.111 µM |  |
| COC(=O)c1c[nH]c(SSc2ccccc2[N+](=O)[O-])n1 [cmdc.202100576, 17e] | 2 µM |  |
| CC(C)C[C@H]1C(=O)N[C@H](C=O)CCC(=O)NCCCn2cc(nn2)C[C@@H]1CC(=O)OCc1ccccc1 [cmdc.202100576, 16c] | 15.5 µM |  |
| CC(C)(C)c1ccc(N(C(=O)c2c[nH]cn2)[C@H](C(=O)NC2CCCC2)c2cccnc2)cc1 [cmdc.202100576, 19e] | 1.7 µM |  |
| CC(C)C[C@H](NC(=O)[C@H](CN1CCOCC1)NC(=O)OCc1ccccc1)C(=O)N[C@@H](C[C@@H]1CCNC1=O)C(=O)C(=O)NC(C)C [cmdc.202100576, 22e] | 0.007 µM |  |
| Fc1ccc(SSc2nccs2)cc1 [cmdc.202100576, 17f] | 2.2 µM |  |
| COC(C)[C@H](NC(=O)OCc1ccccc1)C(=O)N[C@@H](CC(C)C)C(=O)N[C@@H](C[C@@H]1CCNC1=O)C(=O)C(=O)NC(C)C (some centres undefined) [cmdc.202100576, 22c] | 0.0068 µM |  |

| SMILES | IC50 | Ki |
| --- | --- | --- |
| O=C(Oc1c(Cl)cc(Cl)cc1[N+](=O)[O-])c1cc(B(O)O)cc([N+](=O)[O-])c1 [cmdc.202100576, 4e] |  | 6.9 µM |
| O=C(Nc1ccc(N(C(=O)Cn2nnc3ccccc32)[C@H](C(=O)NCc2ccccc2)c2ccsc2)cc1)C1CC1 [cmdc.202100576, 19f] | 2 µM |  |
| CCOC(=O)/C=C/[C@@H](C[C@H]1CCNC1=O)NC(=O)[C@@H](CC(C)C)NC(=O)[C@H](NC(=O)OCc1ccccc1)C(C)OC(C)(C)C (some centres undefined) [cmdc.202100576, 5b] |  | 0.058 µM |
| Cc1ccc(SSc2nccs2)cc1 [cmdc.202100576, 17b] | 1.3 µM |  |
| C=C(N[C@H](C=O)CC1CCNC1=O)[C@H](Cc1ccccc1)NC(=O)[C@@H](NC(=O)c1cncc(F)c1)C(C)C (some centres undefined) [cmdc.202100576, 18c] | 0.035 µM |  |
| O=C1C(=O)N(Cc2ccc3ccccc3c2)c2ccc(C(=O)N3CCCCC3)cc21 [cmdc.202100576, 13f] | 87.8 µM |  |
| COc1cccc2[nH]c(C(=O)N[C@@H](CC(C)C)C(=O)N[C@@H](C[C@@H]3CCNC3=O)C(C)=O)cc12 [WO2006061714, P38.5] | 2.3 µM |  |
| O=C1c2c(O)cc(O)cc2O[C@@H](c2ccc(O)c(O)c2)[C@@H]1O [cmdc.202100576, 15] | 73 µM |  |
| CC(C)C[C@@H](NC(=O)[C@H](Cc1cccc2ccccc12)NC(=O)OCc1ccccc1)C(=O)N[C@@H](C=O)CC1CCNC1=O (some centres undefined) [cmdc.202100576, 14e] | 0.23 µM |  |
| CC(C)(C)NC(=O)C(=O)[C@H](C[C@@H]1CCNC1=O)NC(=O)[C@H](CC1CCCCC1)NC(=O)[C@H](Cc1cccc2ccccc12)NC(=O)OCc1ccc(OCN2CCOCC2)cc1 [cmdc.202100576, 22b] | 0.0066 µM |  |
| O=c1c(O[C@@H]2O[C@H](CO[C@@H]3OC[C@H](O)[C@H](O)[C@H]3O)[C@@H](O)[C@H](O)[C@H]2O)c(-c2ccc(O)c(O)c2)oc2cc(O)cc(O)c12 [cmdc.202100576, 12c] | 31.6 µM |  |
| CC1CCN(C(=O)c2ccc3c(c2)C(=O)C(=O)N3Cc2ccc3ccccc3c2)CC1 [cmdc.202100576, 13b] | 19.7 µM |  |
| COc1cccc2[nH]c(C(=O)N[C@@H](CC(C)C)C(=O)N[C@@H](C[C@@H]3CCNC3=O)C(=O)COC(=O)C3CC3)cc12 [WO2005113580-Ex-37] | 0.162 µM |  |
| CC(C)C(=O)Nc1ccc(N(C(=O)Cn2nnc3ccccc32)[C@H](C(=O)NCc2ccccc2)c2cccc(F)c2)cc1 [cmdc.202100576, 19d] | 1.6 µM |  |
| CC(=O)Nc1cnc(SSc2ccccc2[N+](=O)[O-])s1 [cmdc.202100576, 17c] | 1.9 µM |  |
| CC(C)C[C@H](NC(=O)[C@@H](NC(=O)OCc1ccccc1)C(C)OC(C)(C)C)C(=O)N[C@H](/C=C/C(=O)OC1CC1)C[C@@H]1CCNC1=O (some centres undefined) [cmdc.202100576, 5e] |  | 0.099 µM |
| O=C1C(=O)N(Cc2ccccc2)c2ccc(C(=O)N3CCCC3)cc21 [cmdc.202100576, 13c] | 22.9 µM |  |
| CC(C)C[C@@H](NC(=O)[C@H](Cc1cccc2ccccc12)NC(=O)OCc1ccccc1)C(=O)N[C@H](CC1CCNC1=O)C(=O)C(=O)NC(C)C (some centres undefined) [cmdc.202100576, 14f] | 0.81 µM |  |
| CC(C)[C@H](NC(=O)c1cc2ccccc2[nH]1)C(=O)N[C@@H](Cc1ccccc1)C(=O)N[C@H](C=O)CC1CCNC1=O (some centres undefined) [cmdc.202100576, 18d] | 0.05 µM |  |
| O=C(Oc1ccc(OC(=O)c2cc(B(O)O)cc([N+](=O)[O-])c2)cc1)c1cc(B(O)O)cc([N+](=O)[O-])c1 [cmdc.202100576, 4b] |  | 6.7 µM |
| CC(C)C[C@H](NC(=O)c1nc2ccccc2[nH]1)C(=O)N[C@H](C=O)C[C@@H]1CCNC1=O [WO2006061714-ID-09] | 0.03 µM |  |
| CC(C)C[C@H](NC(=O)[C@H](CN1CCC(F)CC1)NC(=O)OCc1ccccc1)C(=O)N[C@@H](C[C@@H]1CCNC1=O)C(=O)C(=O)NC(C)C [cmdc.202100576, 22f] | 0.007 µM |  |
| O=C1C(=O)N(Cc2ccc3ccccc3c2)c2ccc(C(=O)N3CCCC3)cc21 [cmdc.202100576, 13e] | 70.3 µM |  |

Target: Replicase polyprotein 1ab (Severe acute respiratory syndrome coronavirus 2, UniProt P0DTD1)
Experiment: Various Assay

| SMILES | IC50 |
| --- | --- |
| O=C[C@H](CC1CCNC1=O)NC(=O)[C@H](Cc1ccccc1)NC(=O)c1cc2ccccc2[nH]1 (some centres undefined) [cmdc.202100576, 18b] | 0.034 µM |
| O=C[C@H](CC1CCNC1=O)NC(=O)[C@H](Cc1ccccc1)NC(=O)c1ccc2c(c1)OCO2 (some centres undefined) [cmdc.202100576, 18e] | 0.078 µM |
| CC(C)[C@H](NC(=O)c1cc2ccccc2[nH]1)C(=O)N[C@@H](Cc1ccccc1)C(=O)N[C@H](C=O)CC1CCNC1=O (some centres undefined) [cmdc.202100576, 18d] | 0.068 µM |

Target: Replicase polyprotein 1ab (Middle East respiratory syndrome-related coronavirus (isolate United Kingdom/H123990006/2012), UniProt K9N7C7)
Experiment: Various Assay

| SMILES | IC50 |
| --- | --- |
| CC(C)C[C@H](NC(=O)OCCc1cccc(Cl)c1)C(=O)N[C@@H](C[C@@H]1CCNC1=O)C(O)S(=O)(=O)O (some centres undefined) [cmdc.202100576, 20f] | 0.7 µM |
| CC(C)C[C@H](NC(=O)OC1CCN(S(C)(=O)=O)CC1)C(=O)N[C@@H](C[C@@H]1CCNC1=O)C(O)S(=O)(=O)O (some centres undefined) [cmdc.202100576, 20c] | 0.5 µM |
| O=C(NC1CCCCC1)C(=O)[C@H](C[C@@H]1CCCNC1=O)NC(=O)[C@H](CC1CCCCC1)NC(=O)c1cc2ccccc2o1 [cmdc.202100576, 23b] | < 0.001 µM |
| CC(C)C[C@H](NC(=O)OC1(Cc2ccccc2)CCN(C(=O)OC(C)(C)C)CC1)C(=O)N[C@@H](C[C@@H]1CCNC1=O)C(O)S(=O)(=O)O (some centres undefined) [cmdc.202100576, 20d] | 0.6 µM |
| CC(C)C[C@H](NC(=O)OC1CCN(C(=O)OC(C)(C)C)CC1)C(=O)N[C@@H](C[C@@H]1CCNC1=O)C(O)S(=O)(=O)O (some centres undefined) [cmdc.202100576, 20b] | 0.3 µM and 0.6 µM |
| O=C(NCc1ccccc1)C(=O)[C@H](C[C@@H]1CCCNC1=O)NC(=O)[C@H](CC1CCCCC1)NC(=O)c1cc2ccccc2[nH]1 [cmdc.202100576, 23e] | 0.002 µM |
| O=C(NCc1ccccc1)C(=O)[C@H](C[C@@H]1CCCNC1=O)NC(=O)[C@H](Cc1ccccc1)NC(=O)c1cnc2ccccc2n1 [cmdc.202100576, 23d] | 0.002 µM |
| O=C(NCc1ccccc1)C(=O)[C@H](C[C@@H]1CCCNC1=O)NC(=O)[C@H](CC1CCCCC1)NC(=O)c1cnc2ccccc2n1 [cmdc.202100576, 23f] | 0.005 µM |
| O=C(NCc1ccccc1)C(=O)[C@H](C[C@@H]1CCCNC1=O)NC(=O)[C@H](Cc1ccccc1)NC(=O)c1cc2ccccc2[nH]1 [cmdc.202100576, 23c] | < 0.001 µM |
